Measurements from US11912693B2, “Compounds for modulating S1P1 activity and methods of using the same” (TREVENA, INC., priority 2017, dated 2024).

Assays:
[1] = target: T1, human sphingosine-1-phosphate receptor 1 (S1P1) (Homo sapiens (Human), UniProt P21453); assay: Inhibition of cAMP production (HTRF cAMP HiRange), S1P1 CHO-K1 cells; format: cell-based; settings: for hS1P1 cAMP SPAN / Emax: efficacy (SPAN) normalized to fingolimod; for Emax: CHO-K1, read-out: hS1P1 cAMP SPAN
Procedure: (§1) Stable clonal Chinese hamster ovary K1 (CHO-K1) cells co-expressing EA-β-arrestin2 and the human sphingosine-1-phosphate receptor 1 (NM_001400, S1P1) with a C-terminal Prolink™ tag were purchased from DiscoverX corporation (Cat #: 93-0207C2).
(§2) Cell lines were cultured in AssayComplete™ Media 6 (DiscoverX Corporation, Cat #: 920018GF2) at 37° C. and 5% CO2 in a humidified CO2 and temperature-controlled incubator. To begin assay plating, cells were washed with dulbecco's phosphate buffered saline (CellGro, Cat #: 21-031-CV) and lifted from the culturing flask by incubation (37° C., 5 min) with CellStripper (Cellgro, Cat #: 25-056-CI). […] Plated cells were incubated overnight at 37° C. and 5% CO2 in a humidified CO2 and temperature-controlled incubator. Detecting Inhibition of cAMP Production
Agonist-promoted G-protein responses were determined by measuring changes in intracellular cAMP using the HTRF® cAMP HiRange kit (CisBio, Cat #: 62AM6PEJ) based on time-resolved fluorescence resonance energy transfer (TR-FRET) technology. […] Following a 30-minute incubation at 37° C. and 5% CO2 in a humidified CO2 and temperature-controlled incubator, the components of the cAMP HiRange kit were added as per the manufacturer's instructions. After an hour incubation at room temperature, plates were analyzed by a BMG PheraStar microplate reader.
(§3) The tables below include the efficacy of the compound as compared to a positive control, referred to as “SPAN”. These values are normalized to fingolimod, a known agonist of the sphingosine-1-phosphate 1 receptor. The tables also include potency values (pEC50) for modulating discrete receptor-mediated activities (inhibition of cAMP production and […] recruitment).
Target sequence in this assay (P21453 whole entry, looked up): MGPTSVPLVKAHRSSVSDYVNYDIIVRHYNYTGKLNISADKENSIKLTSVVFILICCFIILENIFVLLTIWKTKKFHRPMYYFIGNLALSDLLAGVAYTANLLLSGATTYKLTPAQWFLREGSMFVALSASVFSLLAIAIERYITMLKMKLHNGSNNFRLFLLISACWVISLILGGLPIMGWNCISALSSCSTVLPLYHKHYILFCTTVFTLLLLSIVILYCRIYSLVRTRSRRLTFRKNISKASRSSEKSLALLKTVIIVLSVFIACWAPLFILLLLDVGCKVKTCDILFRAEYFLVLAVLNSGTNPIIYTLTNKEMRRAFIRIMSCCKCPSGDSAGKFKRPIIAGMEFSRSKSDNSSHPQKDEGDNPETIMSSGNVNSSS

[2] = target: T1, human sphingosine-1-phosphate receptor 1 (S1P1); assay: β-Arrestin2 recruitment assay (PathHunter), S1P1 CHO-K1 cells; format: cell-based; settings: for hS1P1 B-arrestin2 SPAN / Emax: efficacy (SPAN) normalized to fingolimod; for hS1P1 B-arrestin2 pEC50: β-arrestin2 recruitment, S1P1 CHO-K1 cells; for Emax: CHO-K1, read-out: hS1P1 B-arrestin2 SPAN
Procedure: as §1, §2
Target sequence in this assay (P21453 whole entry, looked up): as above
Target sequence in this assay (P32121 whole entry partner, looked up): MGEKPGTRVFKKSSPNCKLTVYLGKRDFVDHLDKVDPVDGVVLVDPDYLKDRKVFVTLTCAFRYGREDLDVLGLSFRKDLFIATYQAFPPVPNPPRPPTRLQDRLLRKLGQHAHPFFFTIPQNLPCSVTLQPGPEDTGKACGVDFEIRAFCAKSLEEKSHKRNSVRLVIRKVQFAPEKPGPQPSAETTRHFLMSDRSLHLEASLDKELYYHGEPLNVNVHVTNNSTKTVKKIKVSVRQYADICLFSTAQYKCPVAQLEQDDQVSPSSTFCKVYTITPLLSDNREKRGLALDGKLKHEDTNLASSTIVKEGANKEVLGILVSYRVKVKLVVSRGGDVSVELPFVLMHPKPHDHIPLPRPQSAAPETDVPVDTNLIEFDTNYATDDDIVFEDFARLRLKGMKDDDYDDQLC
Agonist-promoted β-arrestin2 recruitment to the sphingosine-1-phosphate 1 receptor was determined using the β-arrestin PathHunter®) Detection kit (DiscoverX Corporation, Cat #: 93-0001). […] In cells that stably express these fusion proteins, stimulation with a cognate agonist results in the interaction of […] and the Prolink™-tagged GPCR. This allows the complementation of the two β-galactosidase fragments and results in the formation of a functional enzyme with β-galactosidase activity. […] Following a 60 minute incubation at 37° C. and 5% CO2 in a humidified CO2 and temperature-controlled incubator, the components of the β-arrestin PathHunter® Detection kit were added as per the manufacturer's instructions. After an hour incubation at room temperature, plates were analyzed by a BMG PheraStar microplate reader.
as §3

[3] = inhibition of cAMP production, S1P1 CHO-K1 cells

Compound | hS1P1 cAMP pEC50 [1, 3] | hS1P1 B-arrestin2 pEC50 [2] | Emax [1] | EC50 ([1]; inhibition of cAMP production, S1P1 CHO-K1 cells, read-out: hS1P1 cAMP pEC50 (converted)) | Emax [2] | hS1P1 cAMP SPAN [1] | hS1P1 B-arrestin2 SPAN [2]
Fc1cc(-c2noc(-c3ccc4c(c3)nnn4C3CCCC3)n2)ccc1C(F)(F)F [Compound 1, 1-cyclopentyl-5-{3-[3-fluoro-4-(trifluoromethyl)phenyl]-1,2,4-oxadiazol-5-yl}-1H-1,2,3-benzotriazole] | <6.5 | <5 |  |  |  |  | 
CCn1nnc2cc(-c3noc(-c4ccccc4Br)n3)ccc21 [Compound 2, 5-(2-bromophenyl)-3-(1-ethyl-1H-benzo[d][1,2,3]triazol-5-yl)-1,2,4-oxadiazole] |  | >5 | > 75% | > 0.316 µM | < 75% |  | 
Cc1ccncc1-c1noc(-c2ccc3nnn(CC(C)C)c3c2)n1 [Compound 3, 1-(2-methylpropyl)-6-[3-(4-methylpyridin-3-yl)-1,2,4-oxadiazol-5-yl]-1H-1,2,3-benzotriazole] | >6.5 | >5 |  |  |  |  | 
FC(F)(F)c1cc(-c2noc(-c3ccc4c(c3)nnn4C3CCCC3)n2)ccc1OCc1cccnc1 [Compound 4, 1-cyclopentyl-5-{3-[4-(pyridin-3-ylmethoxy)-3-(trifluoromethyl)phenyl]-1,2,4-oxadiazol-5-yl}-1H-1,2,3-benzotriazole] | <6.5 | <5 | < 75% |  | < 75% |  | 
CCCn1nnc2cc(-c3nc(-c4ccc(F)cc4)no3)ccc21 [Compound 5, 5-[3-(4-fluorophenyl)-1,2,4-oxadiazol-5-yl]-1-propyl-1H-1,2,3-benzotriazole] | <6.5 | <5 |  |  |  |  | 
Cc1cnc(-c2noc(-c3ccc4c(c3)nnn4C3CCOCC3)n2)cn1 [Compound 6, 5-[3-(5-methylpyrazin-2-yl)-1,2,4-oxadiazol-5-yl]-1-(oxan-4-yl)-1H-1,2,3-benzotriazole] | <6.5 | <5 | < 75% |  | < 75% |  | 
c1ccc(-c2noc(-c3ccc4c(c3)nnn4C3CCCC3)n2)cc1 [Compound 7, 1-cyclopentyl-5-(3-phenyl-1,2,4-oxadiazol-5-yl)-1H-1,2,3-benzotriazole] | <6.5 | <5 |  |  |  |  | 
CC(C)n1nnc2cc(-c3nc(-c4ccc(-c5ccccc5)cn4)no3)ccc21 [Compound 9, 5-[3-(5-phenylpyridin-2-yl)-1,2,4-oxadiazol-5-yl]-1-(propan-2-yl)-1H-1,2,3-benzotriazole] | <6.5 | <5 |  |  |  |  | 
FC(F)(F)Oc1cccc(-c2nc(-c3ccc4c(c3)nnn4C3CCCC3)no2)c1 [Compound 10, 3-(1-cyclopentyl-1H-benzo[d][1,2,3]triazol-5-yl)-5-(3-(trifluoromethoxy)phenyl)-1,2,4-oxadiazole] | <6.5 | <5 |  |  |  | <75 | <75
Cc1cccc(-c2noc(-c3ccc4c(c3)nnn4C3CCCCC3)n2)c1 [Compound 11, 1-cyclohexyl-5-[3-(3-methylphenyl)-1,2,4-oxadiazol-5-yl]-1H-1,2,3-benzotriazole] | <6.5 | <5 |  |  |  |  | 
FC(F)(F)c1cccc(-c2nc(-c3ccc4c(c3)nnn4C3CCCC3)no2)c1 [Compound 12, 3-(1-cyclopentyl-1H-benzo[d][1,2,3]triazol-5-yl)-5-(3-(trifluoromethyl)phenyl)-1,2,4-oxadiazole] | <6.5 | <5 |  |  |  |  | 
Oc1ccc(-c2noc(-c3ccc4c(c3)nnn4C3CCCC3)n2)cc1 [Compound 13, 4-[5-(1-cyclopentyl-1H-1,2,3-benzotriazol-5-yl)-1,2,4-oxadiazol-3-yl]phenol] | >6.5 | >5 |  |  |  |  | 
CC(C)Oc1ccc(-c2nc(-c3ccc4c(c3)nnn4C3CCCC3)no2)cc1C(F)(F)F [Compound 14, 3-(1-cyclopentyl-1H-benzo[d][1,2,3]triazol-5-yl)-5-(4-isopropoxy-3-(trifluoromethyl)phenyl)-1,2,4-oxadiazole] | >6.5 | >5 | < 75% |  | < 75% |  | 
CC(C)n1nnc2cc(-c3nc(-c4ccc(Oc5ccccc5)cc4)no3)ccc21 [Compound 15, 5-[3-(4-phenoxyphenyl)-1,2,4-oxadiazol-5-yl]-1-(propan-2-yl)-1H-1,2,3-benzotriazole] | <6.5 | <5 |  |  |  |  | 

Second part, led by results:

hS1P1 cAMP pEC50 [1, 3] | hS1P1 B-arrestin2 pEC50 [2] | Emax [1] | EC50 ([1]; inhibition of cAMP production, S1P1 CHO-K1 cells, read-out: hS1P1 cAMP pEC50 (converted)) | Emax [2] | Compound | hS1P1 cAMP SPAN [1] | hS1P1 B-arrestin2 SPAN [2]
<6.5 | >5 |  |  |  | 2-(5-(5-(2- chlorophenyl)-1,2,4- oxadiazol-3-yl)-1H- benzo[d][1,2,3]triazol- 1-yl)-2-methylpropan- 1-ol [Compound 618] | <75 | <75
<6.5 | >5 |  |  |  | CSc1ccccc1-c1nc(-c2ccc3c(c2)nnn3C2CCCC2)no1 [Compound 16, 3-(1-cyclopentyl-1H-benzo[d][1,2,3]triazol-5-yl)-5-(2-(methylthio)phenyl)-1,2,4-oxadiazole] |  | 
>6.5 | >5 |  |  |  | CC(C)n1nnc2cc(-c3nc(-c4ccccc4Cl)no3)ccc21 [Compound 17, 5-[3-(2-chlorophenyl)-1,2,4-oxadiazol-5-yl]-1-(propan-2-yl)-1H-1,2,3-benzotriazole] |  | 
<6.5 | <5 |  |  |  | CC(C)n1nnc2cc(-c3noc(C4CCC4)n3)ccc21 [Compound 18, 5-(5-cyclobutyl-1,2,4-oxadiazol-3-yl)-1-(propan-2-yl)-1H-1,2,3-benzotriazole] |  | 
>6.5 | >5 |  |  |  | CC(C)Oc1ccc(-c2noc(-c3ccc4c(c3)nnn4C(C)C)n2)cc1C(F)(F)F [Compound 20, 3-(4-isopropoxy-3-(trifluoromethyl)phenyl)-5-(1-isopropyl-1H-benzo[d][1,2,3]triazol-5-yl)-1,2,4-oxadiazole] |  | 
<6.5 | <5 |  |  |  | CC(C)n1nnc2cc(-c3nc(-c4ccccc4F)co3)ccc21 [Compound 21, 5-[4-(2-fluorophenyl)-1,3-oxazol-2-yl]-1-(propan-2-yl)-1H-1,2,3-benzotriazole] |  | 
<6.5 | <5 |  |  |  | CC(C)n1nnc2cc(-c3noc(-c4cccc(COc5ccccc5)c4)n3)ccc21 [Compound 23, 3-(1-isopropyl-1H-benzo[d][1,2,3]triazol-5-yl)-5-(3-(phenoxymethyl)phenyl)-1,2,4-oxadiazole] |  | 
<6.5 | <5 |  |  |  | OCCCn1nnc2cc(-c3noc(-c4ccccc4Br)n3)ccc21 [Compound 24, 3-(5-(5-(2-bromophenyl)-1,2,4-oxadiazol-3-yl)-1H-benzo[d][1,2,3]triazol-1-yl)propan-1-ol] |  | 
<6.5 | <5 |  |  |  | CC(C)c1ccc(-c2nc(-c3ccc4c(c3)nnn4C(C)C)no2)cn1 [Compound 25, 3-(1-isopropyl-1H-benzo[d][1,2,3]triazol-5-yl)-5-(6-isopropylpyridin-3-yl)-1,2,4-oxadiazole] |  | 
<6.5 | >5 | > 75% |  | < 75% | CCC1(CC)CC(=O)c2cc(-c3nc(-c4ccncc4)no3)ccc2O1 [Compound 27, 2,2-diethyl-6-[3-(pyridin-4-yl)-1,2,4-oxadiazol-5-yl]-3,4-dihydro-2H-1-benzopyran-4-one] |  | 
<6.5 | <5 | > 75% |  | > 75% | CCC1(CC)CC(=O)c2cc(-c3nnc(-c4cccnc4)o3)ccc2O1 [Compound 28, 2,2-diethyl-6-(5-(pyridin-3-yl)-1,3,4-oxadiazol-2-yl)chroman-4-one] |  | 
<6.5 | <5 |  |  |  | CCC1(CC)CC(=O)c2cc(-c3nc(-c4ccc5c(c4)nnn5C(C)C)ns3)ccc2O1 [Compound 29, 2,2-diethyl-6-(3-(1-isopropyl-1H-benzo[d][1,2,3]triazol-5-yl)-1,2,4-thiadiazol-5-yl)chroman-4-one] |  | 
